Measurements from ChEMBL document CHEMBL1157697, “Novel ester and acid derivatives of the 1,5-diarylpyrrole scaffold as anti-inflammatory and analgesic agents. Synthesis and in vitro and in vivo biological evaluation” (J Med Chem, 2010).
Active and inactive are the calls of the source. The calls are words filed in the database; no cut-off is given here.

What was measured:
[1] = organism: Mus musculus; assay: Selectivity index, ratio of IC50 for mouse COX1 to IC50 for mouse COX2
[2] = system: Mus musculus; assay: Analgesic activity against acetic acid-induced mouse abdominal constriction assessed as writhing at 20 mg/kg, po; conditions: Abdomen
[3] = system: Rattus norvegicus; assay: Antiinflammatory activity against carrageenan-induced paw edema rat inflammatory model assessed as paw pressure at 20 mg/kg, po after 60 mins; assay type: functional
[4] = system: Rattus norvegicus; assay: Antiinflammatory activity against carrageenan-induced paw edema rat inflammatory model assessed as paw pressure at 20 mg/kg, po after 120 mins; assay type: functional
[5] = biological target: T1, Prostaglandin G/H synthase 2 (Mus musculus, UniProt Q05769)
T1 sequence (Q05769 whole entry): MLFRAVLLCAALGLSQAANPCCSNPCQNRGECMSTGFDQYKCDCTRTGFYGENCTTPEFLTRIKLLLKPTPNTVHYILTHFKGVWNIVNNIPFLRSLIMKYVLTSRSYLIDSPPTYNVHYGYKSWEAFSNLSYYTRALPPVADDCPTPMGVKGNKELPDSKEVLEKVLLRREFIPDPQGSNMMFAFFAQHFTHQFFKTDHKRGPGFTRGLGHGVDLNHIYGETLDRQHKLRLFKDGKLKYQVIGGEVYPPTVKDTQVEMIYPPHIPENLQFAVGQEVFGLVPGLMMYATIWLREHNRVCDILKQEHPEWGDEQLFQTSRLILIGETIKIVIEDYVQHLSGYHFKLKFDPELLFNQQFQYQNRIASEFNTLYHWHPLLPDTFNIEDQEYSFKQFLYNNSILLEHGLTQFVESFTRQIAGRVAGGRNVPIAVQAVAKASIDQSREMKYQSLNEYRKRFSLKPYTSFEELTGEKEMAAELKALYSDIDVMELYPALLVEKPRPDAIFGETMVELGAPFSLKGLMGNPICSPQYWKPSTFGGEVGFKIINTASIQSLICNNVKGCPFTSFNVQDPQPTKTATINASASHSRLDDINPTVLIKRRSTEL
Description: Inhibition of COX2-dependent PGE2 production in LPS-stimulated mouse J774 cells by RIA

[6] = system: Rattus norvegicus; assay: Antiinflammatory activity against carrageenan-induced paw edema rat inflammatory model assessed as suppression of paw edema at 20 mg/kg, po after 60 mins; assay type: functional
[7] = system: Rattus norvegicus; assay: Antiinflammatory activity against carrageenan-induced paw edema rat inflammatory model assessed as paw pressure at 20 mg/kg, po after 30 mins; assay type: functional
[8] = system: Rattus norvegicus; assay: Antiinflammatory activity against carrageenan-induced paw edema rat inflammatory model assessed as paw volume at 20 mg/kg, po after 60 mins; assay type: functional
[9] = biological target: T2, Prostaglandin G/H synthase 1 (Mus musculus, UniProt P22437)
T2 sequence (P22437 whole entry): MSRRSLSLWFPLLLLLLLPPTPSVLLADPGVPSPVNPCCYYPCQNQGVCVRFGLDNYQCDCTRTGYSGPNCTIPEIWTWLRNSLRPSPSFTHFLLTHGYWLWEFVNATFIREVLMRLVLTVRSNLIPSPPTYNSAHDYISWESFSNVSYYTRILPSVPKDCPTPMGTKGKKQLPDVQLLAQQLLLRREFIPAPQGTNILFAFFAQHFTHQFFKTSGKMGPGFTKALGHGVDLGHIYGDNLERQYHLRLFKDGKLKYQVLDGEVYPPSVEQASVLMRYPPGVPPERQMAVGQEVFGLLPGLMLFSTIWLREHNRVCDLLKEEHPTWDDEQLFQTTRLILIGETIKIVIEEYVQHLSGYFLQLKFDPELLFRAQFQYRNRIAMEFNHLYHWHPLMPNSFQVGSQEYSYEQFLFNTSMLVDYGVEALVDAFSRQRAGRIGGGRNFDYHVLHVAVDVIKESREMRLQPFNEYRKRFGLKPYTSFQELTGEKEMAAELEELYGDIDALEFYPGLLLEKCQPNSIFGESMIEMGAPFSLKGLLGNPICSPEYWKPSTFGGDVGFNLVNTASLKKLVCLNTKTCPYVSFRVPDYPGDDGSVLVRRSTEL
Description: Inhibition of COX1-dependent PGE2 production in LPS-stimulated mouse J774 cells by RIA

[10] = Metabolic stability in human liver microsomes at 10 uM; assay type: ADME, Microsome; conditions: read-out: Stability
[11] = Metabolic stability in human liver microsomes at 0.1 uM; assay type: ADME, Microsome; conditions: read-out: Stability
[12] = biological target: T3, Prostaglandin G/H synthase 2 (Homo sapiens, UniProt P35354); assay: Inhibition of COX2 in human whole blood assessed as inhibition of LPS-induced PGE2 production by RIA; assay type: tissue-based
T3 sequence (P35354 whole entry): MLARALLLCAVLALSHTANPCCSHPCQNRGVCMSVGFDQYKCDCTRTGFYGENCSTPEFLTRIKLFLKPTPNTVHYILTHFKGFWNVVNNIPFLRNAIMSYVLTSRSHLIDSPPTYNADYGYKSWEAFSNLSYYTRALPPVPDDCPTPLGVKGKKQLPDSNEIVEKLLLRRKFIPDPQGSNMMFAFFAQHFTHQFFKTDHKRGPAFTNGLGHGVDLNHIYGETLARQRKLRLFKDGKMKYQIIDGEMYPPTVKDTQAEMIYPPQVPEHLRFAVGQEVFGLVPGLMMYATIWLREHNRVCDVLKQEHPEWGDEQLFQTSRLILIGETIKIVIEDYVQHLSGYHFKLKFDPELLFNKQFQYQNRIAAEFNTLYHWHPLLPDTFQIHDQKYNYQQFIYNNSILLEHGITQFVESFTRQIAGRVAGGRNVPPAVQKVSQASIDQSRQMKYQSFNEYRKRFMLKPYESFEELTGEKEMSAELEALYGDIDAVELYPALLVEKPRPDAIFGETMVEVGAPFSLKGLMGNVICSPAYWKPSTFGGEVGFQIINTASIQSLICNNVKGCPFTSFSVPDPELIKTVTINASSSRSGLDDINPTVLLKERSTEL

[13] = biological target: Prostaglandin G/H synthase 1 (Homo sapiens, UniProt P23219); assay: Inhibition of COX1 in human whole blood assessed as thromboxane B2 production by RIA; assay type: tissue-based
Prostaglandin G/H synthase 1 (Homo sapiens, UniProt P23219), sequence (P23219 whole entry): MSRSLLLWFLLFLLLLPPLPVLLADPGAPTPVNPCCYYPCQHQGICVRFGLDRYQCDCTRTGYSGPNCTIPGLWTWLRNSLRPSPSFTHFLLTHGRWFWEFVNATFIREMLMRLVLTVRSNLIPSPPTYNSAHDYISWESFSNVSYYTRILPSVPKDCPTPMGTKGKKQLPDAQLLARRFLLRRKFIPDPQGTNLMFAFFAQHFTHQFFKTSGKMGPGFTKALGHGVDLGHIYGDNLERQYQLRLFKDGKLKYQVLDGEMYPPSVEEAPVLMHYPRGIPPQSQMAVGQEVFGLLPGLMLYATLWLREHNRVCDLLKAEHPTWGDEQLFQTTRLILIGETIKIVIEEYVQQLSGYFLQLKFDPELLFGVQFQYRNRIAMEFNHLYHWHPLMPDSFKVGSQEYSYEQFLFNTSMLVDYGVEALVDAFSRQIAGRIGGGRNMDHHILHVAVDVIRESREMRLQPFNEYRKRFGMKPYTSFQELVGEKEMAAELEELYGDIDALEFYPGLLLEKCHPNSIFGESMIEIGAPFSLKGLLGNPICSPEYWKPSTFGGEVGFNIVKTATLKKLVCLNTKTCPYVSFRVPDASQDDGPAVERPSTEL

[14] = system: Mus musculus; assay: Analgesic activity against acetic acid-induced po dosed mouse abdominal constriction assessed as writhing; conditions: Abdomen
[15] = system: Mus musculus; assay: Analgesic activity against acetic acid-induced mouse abdominal constriction assessed as writhing at 10 mg/kg, po; conditions: Abdomen
[16] = organism: Rattus norvegicus; assay: Analgesic activity against zymosan-induced hyperalgesia in rat assessed maximum effect measured up to 2 hrs
[17] = organism: Rattus norvegicus; assay: Analgesic activity against zymosan-induced hyperalgesia in rat assessed maximum effect measured up to 6 hrs
[18] = system: Rattus norvegicus; assay: Antiinflammatory activity against carrageenan-induced paw edema rat inflammatory model assessed as paw volume at 10 mg/kg, po after 60 mins

Structure (SMILES) | Ratio IC50 [1] | Activity [2] | Activity [3] | Activity [4] | IC50 [5] | Activity [6] | Activity [7] | Activity [8] | IC50 [9] | remaining at 10 µM [10] | remaining at 0.1 µM [11] | IC50 [12] | IC50 [13] | Activity [14] | Activity [15] | Activity [16] | Activity [17] | Activity [18]
Cc1c(CC(=O)O)cc(-c2ccc(S(C)(=O)=O)cc2)n1-c1ccc(F)c(F)c1 | 38 | Active | 54.1 g | 48.6 g | 0.26 µM | 90.9% | 58.3 g | 1.42 mL | 10 µM | 100% | 100% |  |  |  |  |  |  | 
CCCCOC(=O)Cc1cc(-c2ccc(S(C)(=O)=O)cc2)n(-c2cccc(F)c2)c1C | > 4100 |  | 46.9 g | 45.2 g | 0.024 µM | 67.2% | 49.7 g | 1.71 mL | > 100 µM | 2% | 0% |  |  |  |  |  |  | 
Cc1c(CC(=O)O)cc(-c2ccc(S(C)(=O)=O)cc2)n1-c1cccc(F)c1 | > 3500 | Active | 55.2 g | 43.1 g | 0.028 µM | 93.6% | 54.8 g | 1.35 mL | > 100 µM | 100% | 100% | 17 µM | 125 µM | Dose-dependent effect |  |  |  | 
CCCCOC(=O)Cc1cc(-c2ccc(S(C)(=O)=O)cc2)n(-c2ccc(F)c(F)c2)c1C | > 3300 | Active | 59.2 g | 56.6 g | 0.03 µM | 73.6% | 52.7 g | 1.52 mL | > 100 µM | 15% | 2% |  |  |  |  |  |  | 
CCOC(=O)Cc1cc(-c2ccc(S(C)(=O)=O)cc2)n(-c2ccccc2)c1C | > 2500 |  |  |  |  |  |  |  |  |  |  |  |  |  |  |  |  | 
CCCCOC(=O)Cc1cc(-c2ccc(S(C)(=O)=O)cc2)n(-c2ccc(OC)cc2)c1C | > 2600 | Active | 51.4 g | 50.8 g | 0.038 µM | 89.1% | 53.4 g | 1.45 mL | > 100 µM | 2% | 5% |  |  |  | Active |  |  | 
Cc1c(CC(=O)OC(C)C)cc(-c2ccc(S(C)(=O)=O)cc2)n1-c1ccc(F)c(F)c1 | > 4700 |  | 52.3 g | 58.3 g | 0.021 µM | 89% | 64.8 g | 1.39 mL | > 100 µM | 13% | 0% |  |  |  |  |  |  | 
COc1ccc(-n2c(-c3ccc(S(C)(=O)=O)cc3)cc(CC(=O)O)c2C)cc1 | > 580 |  | 39.8 g | 36.2 g | 0.17 µM | 50.9% | 52.3 g | 1.81 mL | > 100 µM | 84% | 77% |  |  |  |  |  |  | 
CCCCOC(=O)Cc1cc(-c2ccc(S(C)(=O)=O)cc2)n(-c2ccccc2)c1C | > 7100 |  | 46.3 g | 42.6 g | 0.014 µM | 66.3% | 52.5 g | 1.68 mL | > 100 µM | 3% | 7% |  |  |  |  |  |  | 
Cc1c(CC(=O)OC(C)C)cc(-c2ccc(S(C)(=O)=O)cc2)n1-c1cccc(F)c1 | > 2300 |  | 57.9 g | 45.2 g | 0.043 µM | 87.2% | 59.5 g | 1.31 mL | > 100 µM | 1% | 0% | 2 µM | 24 µM | Dose-dependent effect |  |  |  | 
Cc1c(CC(=O)O)cc(-c2ccc(S(C)(=O)=O)cc2)n1-c1ccccc1 | > 100 |  | 51.8 g | 41.6 g |  | 42.7% | 48.6 g | 1.86 mL |  | 97% | 94% | 7 µM | 132 µM |  |  |  |  | 
COc1ccc(-n2c(-c3ccc(S(C)(=O)=O)cc3)cc(CC(=O)OC(C)C)c2C)cc1 | > 4500 |  | 56.7 g | 41.7 g | 0.022 µM | 77.2% | 51 g | 1.41 mL | > 100 µM | 1% | 7% |  |  |  |  |  |  | 
Cc1ccc(-c2cc(C(F)(F)F)nn2-c2ccc(S(N)(=O)=O)cc2)cc1 [CELECOXIB] |  |  | 58.2 g | 55.2 g |  | 95.5% | 56.5 g |  |  |  |  |  |  |  |  | 30% | 35% | 1.33 mL
